The results in this text go back to PubChem BioAssay AID1745844 (Carcinogenic Potency Database (CPDB), 2022).

Molecules are shown by their SMILES. Where “and” joins values, the source holds several entries; their conditions need not be identical. Equal entries are not always repeated. Calls of active or inactive are those of the source. How the calls were made is not given here.

This series relates to rodent lifetime carcinogenesis bioassay, tumor incidence TD50. Briefly: carcinogenic potency in animals, long-term in vivo studies, CPDB compilation (AID 1745844).

Broadly, the TD50 is the dose at which the toxic effect under study appears in half of the subjects. As for `C1CO1`, the TD50 runs as follows: (mouse, strain B6C3F1, females, inhaled, site: Harderian gland + lung, lesion: papillary cystadenoma, NOS + alveolar/bronchiolar adenoma + alveolar/bronchiolar carcinoma, dosed 102 weeks, study length 104 weeks) 45.8 mg/kg/day; (mouse, strain B6C3F1, females, inhaled, site: Harderian gland, lesion: papillary cystadenoma, NOS, dosed 102 weeks, study length 104 weeks) 142 mg/kg/day; (mouse, strain B6C3F1, females, inhaled, site: any site (literature study), lesion: several types, types named in the paper, dosed 102 weeks, study length 104 weeks) 103 mg/kg/day; (mouse, strain B6C3F1, females, inhaled, site: duodenum + Harderian gland + kidney + lung + mediastinum + mammary gland + mesenteric lymph node + multiple organs + spleen + uterus, lesion: malignant lymphoma, NOS + papillary cystadenoma, NOS + alveolar/bronchiolar adenoma + alveolar/bronchiolar carcinoma + adenocarc, dosed 102 weeks, study length 104 weeks) 39.2 mg/kg/day; (mouse, strain B6C3F1, females, inhaled, site: duodenum + kidney + mediastinum + mammary gland + mesenteric lymph node + multiple organs + spleen + uterus, lesion: malignant lymphoma, NOS + adenocarcinoma, NOS + adenosquamous carcinoma + malignant lymphoma, histiocytic type + adenoma, NOS, dosed 102 weeks, study length 104 weeks) 79.2 mg/kg/day; (mouse, strain B6C3F1, females, inhaled, site: duodenum + kidney + mediastinum + mesenteric lymph node + multiple organs + spleen + uterus, lesion: malignant lymphoma, NOS + malignant lymphoma, histiocytic type, dosed 102 weeks, study length 104 weeks) 139 mg/kg/day. For the same molecule, the TD50 runs as follows: (mouse, strain B6C3F1, females, inhaled, site: liver, lesion: hepatocellular adenoma + hepatocellular carcinoma + neoplastic nodule, dosed 102 weeks, study length 104 weeks) 149 mg/kg/day; (mouse, strain B6C3F1, females, inhaled, site: liver, lesion: hepatocellular adenoma, dosed 102 weeks, study length 104 weeks) 75.8 mg/kg/day; (mouse, strain B6C3F1, females, inhaled, site: lung, lesion: alveolar/bronchiolar adenoma + alveolar/bronchiolar carcinoma, dosed 102 weeks, study length 104 weeks) 61.8 mg/kg/day; (mouse, strain B6C3F1, females, inhaled, site: lung, lesion: alveolar/bronchiolar adenoma, dosed 102 weeks, study length 104 weeks) 87.5 mg/kg/day; (mouse, strain B6C3F1, females, inhaled, site: lung, lesion: alveolar/bronchiolar carcinoma, dosed 102 weeks, study length 104 weeks) 200 mg/kg/day; (mouse, strain B6C3F1, females, inhaled, site: mammary gland, lesion: adenocarcinoma, NOS + adenosquamous carcinoma, dosed 102 weeks, study length 104 weeks) 76.3 mg/kg/day. Further, the TD50 (mouse, strain B6C3F1, females, inhaled, site: uterus, lesion: adenocarcinoma, NOS + adenoma, NOS, dosed 102 weeks, study length 104 weeks) was 250 mg/kg/day; the TD50 (mouse, strain B6C3F1, females, inhaled, site: uterus, lesion: adenocarcinoma, NOS, dosed 102 weeks, study length 104 weeks) is 297 mg/kg/day; the TD50 (mouse, strain B6C3F1, males, inhaled, site: Harderian gland + lung, lesion: papillary cystadenoma, NOS + alveolar/bronchiolar adenoma + alveolar/bronchiolar carcinoma, dosed 102 weeks, study length 104 weeks) was determined as 51.2 mg/kg/day; the TD50 (mouse, strain B6C3F1, males, inhaled, site: Harderian gland, lesion: papillary cystadenoma, NOS, dosed 102 weeks, study length 104 weeks) is 110 mg/kg/day; the TD50 (mouse, strain B6C3F1, males, inhaled, site: any site (literature study), lesion: several types, types named in the paper, dosed 102 weeks, study length 104 weeks) worked out at 108 mg/kg/day; the TD50 (mouse, strain B6C3F1, males, inhaled, site: liver, lesion: hepatocellular adenoma + hepatocellular carcinoma + neoplastic nodule, dosed 102 weeks, study length 104 weeks) amounted to 273 mg/kg/day. In addition, the TD50 (mouse, strain B6C3F1, males, inhaled, site: lung, lesion: alveolar/bronchiolar adenoma + alveolar/bronchiolar carcinoma, dosed 102 weeks, study length 104 weeks) worked out at 65.7 mg/kg/day; the TD50 (mouse, strain B6C3F1, males, inhaled, site: lung, lesion: alveolar/bronchiolar adenoma, dosed 102 weeks, study length 104 weeks) is 181 mg/kg/day; the TD50 (mouse, strain B6C3F1, males, inhaled, site: lung, lesion: alveolar/bronchiolar carcinoma, dosed 102 weeks, study length 104 weeks) is 110 mg/kg/day; the TD50 (rat, strain Fischer 344/Mai fBR, females, inhaled, site: brain, lesion: several types, types named in the paper, dosed 76 weeks, study length 78 weeks) was 237 mg/kg/day; the TD50 (rat, strain Fischer 344/Mai fBR, females, inhaled, site: brain, lesion: several types, types named in the paper, dosed 101 weeks, study length 104 weeks) is 143 mg/kg/day; the TD50 (rat, strain Fischer 344/Mai fBR, females, inhaled, site: pituitary gland, lesion: adenoma, dosed 76 weeks, study length 78 weeks) was 29.8 mg/kg/day (inactive). The TD50 is 26.1 mg/kg/day (inactive) (rat, strain Fischer 344/Mai fBR, males, inhaled, site: adrenal gland, lesion: pheochromocytoma, dosed 76 weeks, study length 78 weeks); 102 mg/kg/day (rat, strain Fischer 344/Mai fBR, males, inhaled, site: brain, lesion: astrocytoma, dosed 76 weeks, study length 78 weeks); 70.7 mg/kg/day (rat, strain Fischer 344/Mai fBR, males, inhaled, site: brain, lesion: several types, types named in the paper, dosed 105 weeks, study length 108 weeks); 121 mg/kg/day (rat, strain Fischer 344, males, inhaled, site: brain, lesion: glioma, dosed 101 weeks, study length 104 weeks); 30.8 mg/kg/day (rat, strain Fischer 344, males, inhaled, site: peritoneum, lesion: mesothelioma, dosed 101 weeks, study length 104 weeks); 47.3 mg/kg/day (rat, strain Fischer 344, males, inhaled, site: spleen, lesion: mononuclear-cell leukemia, dosed 101 weeks, study length 104 weeks). Further, the TD50 was 10.6 mg/kg/day (rat, strain Sprague-Dawley, females, by gavage, site: forestomach, lesion: squamous-cell carcinoma, dosed 107 weeks, study length 150 weeks); 10 mg/kg/day (inactive) (rat, strain Sprague-Dawley, females, by gavage, site: mammary gland, lesion: adenofibroma, dosed 107 weeks, study length 150 weeks); 7.43 mg/kg/day (rat, strain Sprague-Dawley, females, by gavage, site: stomach, lesion: several types, types named in the paper, dosed 107 weeks, study length 150 weeks). For the same molecule, the carcinogen call is, setting by setting: (rat, strain Fischer 344/Mai fBR, males, inhaled, site: pituitary gland, lesion: adenoma, dosed 76 weeks, study length 78 weeks) “negative (inactive)”; (rat, strain Fischer 344/Mai fBR, males, inhaled, site: testis, lesion: interstitial-cell tumor, dosed 76 weeks, study length 78 weeks) “negative (inactive)”.

On to `Cc1ccc(N)cc1N`, for which the TD50 is 10.6 mg/kg/day (mouse, strain B6C3F1, females, in feed, site: all sites, lesion: leukemia + lymphoma, dosed 101 weeks, study length 101 weeks); 8.64 mg/kg/day (mouse, strain B6C3F1, females, in feed, site: any site (literature study), lesion: several types, types named in the paper, dosed 101 weeks, study length 101 weeks); 26.7 mg/kg/day (mouse, strain B6C3F1, females, in feed, site: liver, lesion: hepatocellular adenoma + hepatocellular carcinoma + neoplastic nodule, dosed 101 weeks, study length 101 weeks); 26.7 mg/kg/day (mouse, strain B6C3F1, females, in feed, site: liver, lesion: hepatocellular carcinoma, dosed 101 weeks, study length 101 weeks); 105 mg/kg/day (mouse, strain B6C3F1, males, in feed, site: any site (literature study), lesion: several types, types named in the paper, dosed 101 weeks, study length 101 weeks); 35.8 mg/kg/day (mouse, strain B6C3F1, males, in feed, site: lung, lesion: alveolar/bronchiolar adenoma + alveolar/bronchiolar carcinoma, dosed 101 weeks, study length 101 weeks). Moreover, the TD50 by setting is: (mouse, strain B6C3F1, males, in feed, site: lung, lesion: alveolar/bronchiolar carcinoma, dosed 101 weeks, study length 101 weeks) 35.8 mg/kg/day (inactive); (mouse, strain CD-1 HaM/ICR, females, in feed, site: any site (literature study), lesion: several types, types named in the paper, dosed 77 weeks, study length 90 weeks) 100 mg/kg/day; (mouse, strain CD-1 HaM/ICR, females, in feed, site: liver, lesion: hepatoma, dosed 77 weeks, study length 90 weeks) 206 mg/kg/day; (mouse, strain CD-1 HaM/ICR, females, in feed, site: liver, lesion: several types, types named in the paper, dosed 77 weeks, study length 90 weeks) 180 mg/kg/day; (mouse, strain CD-1 HaM/ICR, females, in feed, site: lung, lesion: several types, types named in the paper, dosed 77 weeks, study length 90 weeks) 72 mg/kg/day (inactive); (mouse, strain CD-1 HaM/ICR, males, in feed, site: all sites, lesion: all vascular tumors, dosed 77 weeks, study length 90 weeks) 317 mg/kg/day. Moreover, the TD50 (mouse, strain CD-1 HaM/ICR, males, in feed, site: liver, lesion: hepatoma, dosed 77 weeks, study length 90 weeks) is 201 mg/kg/day; the TD50 (mouse, strain CD-1 HaM/ICR, males, in feed, site: liver, lesion: several types, types named in the paper, dosed 77 weeks, study length 90 weeks) amounted to 191 mg/kg/day; the TD50 (rat, strain Charles River CD (Sprague-Dawley), males, in feed, site: any site (literature study), lesion: several types, types named in the paper, dosed 64 weeks, study length 73 weeks) is 2.98 mg/kg/day; the TD50 (rat, strain Charles River CD (Sprague-Dawley), males, in feed, site: liver, lesion: hepatoma, dosed 64 weeks, study length 73 weeks) is 22.2 mg/kg/day; the TD50 (rat, strain Charles River CD (Sprague-Dawley), males, in feed, site: liver, lesion: several types, types named in the paper, dosed 64 weeks, study length 73 weeks) turned out to be 26.2 mg/kg/day; the TD50 (rat, strain Charles River CD (Sprague-Dawley), males, in feed, site: subcutaneous tissue, lesion: fibroma, dosed 64 weeks, study length 73 weeks) was 5.42 mg/kg/day and 4.42 mg/kg/day. For the same molecule, the TD50 was 1.46 mg/kg/day (rat, strain Fischer 344, females, in feed, site: any site (literature study), lesion: several types, types named in the paper, dosed 93 weeks, study length 103 weeks); 1.43 mg/kg/day (rat, strain Fischer 344, females, in feed, site: liver + mammary gland, lesion: hepatocellular carcinoma + neoplastic nodule + adenoma + carcinoma, dosed 93 weeks, study length 103 weeks); 58 mg/kg/day (rat, strain Fischer 344, females, in feed, site: liver, lesion: hepatocellular adenoma + hepatocellular carcinoma + neoplastic nodule, dosed 93 weeks, study length 103 weeks); 58 mg/kg/day (rat, strain Fischer 344, females, in feed, site: liver, lesion: hepatocellular carcinoma + neoplastic nodule, dosed 93 weeks, study length 103 weeks); 5.54 mg/kg/day (rat, strain Fischer 344, females, in feed, site: mammary gland, lesion: adenoma + carcinoma, dosed 93 weeks, study length 103 weeks); 1.46 mg/kg/day (rat, strain Fischer 344, females, in feed, site: mammary gland, lesion: adenoma, dosed 93 weeks, study length 103 weeks). Besides, the TD50 by setting is: (rat, strain Fischer 344, females, in feed, site: mammary gland, lesion: carcinoma, dosed 93 weeks, study length 103 weeks) 8.98 mg/kg/day; (rat, strain Fischer 344, females, in feed, site: subcutaneous tissue, lesion: fibroma, dosed 93 weeks, study length 103 weeks) 16.4 mg/kg/day; (rat, strain Fischer 344, males, in feed, site: all sites, lesion: mesothelioma, dosed 91 weeks, study length 103 weeks) 6.81 mg/kg/day; (rat, strain Fischer 344, males, in feed, site: any site (literature study), lesion: several types, types named in the paper, dosed 91 weeks, study length 103 weeks) 0.991 mg/kg/day; (rat, strain Fischer 344, males, in feed, site: liver, lesion: hepatocellular adenoma + hepatocellular carcinoma + neoplastic nodule, dosed 91 weeks, study length 103 weeks) 8.11 mg/kg/day; (rat, strain Fischer 344, males, in feed, site: liver, lesion: hepatocellular carcinoma + neoplastic nodule, dosed 91 weeks, study length 103 weeks) 8.11 mg/kg/day. Further, the TD50 is 2.52 mg/kg/day (rat, strain Fischer 344, males, in feed, site: subcutaneous tissue, lesion: fibroma, dosed 91 weeks, study length 103 weeks) and 13.2 mg/kg/day (rat, strain Fischer 344, males, in feed, site: subcutaneous tissue, lesion: lipoma, dosed 91 weeks, study length 103 weeks). For the same molecule, under “mouse, strain CD-1 HaM/ICR, males, in feed, site: lung, lesion: several types, types named in the paper, dosed 77 weeks, study length 90 weeks”, the carcinogen call was “negative (inactive)”.

Take `NNc1nc(-c2ccccc2)cs1`: the TD50 (rat, strain Sprague-Dawley, females, in feed, site: any site (literature study), lesion: several types, types named in the paper, dosed 46 weeks, study length 66 weeks) is 311 mg/kg/day (inactive).
